Measured values published in US20240270762A1, “PENICILLIN-BINDING PROTEIN INHIBITORS” (priority 2021, published 2024).
≈ marks a conversion by molar mass, not a printed value.

How the values were obtained:
[1] = target: A. baumannii PBP2 (Acinetobacter baumannii, UniProt D0C8Z9); assay: Bocillin-FL competition binding via gel filtration, A. baumannii PBP2
Outline: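 Enzyme pre-incubated with increasing inhibitor concentrations, then Bocillin-FL added for 15 min further incubation. Bocillin-FL-bound PBP separated by gel filtration and fluorescence read. EC50 from fitting fraction PBP bound vs inhibitor concentration to a Hill-type equation (ymin, ymax, n).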

[2] = test system: A. baumannii CDC-0083; assay: microbe, parasite or virus in culture; format: cell-based; details: Acinetobacter baumannii, CDC0083, read-out: MIC, A. baumannii CDC-0083
[3] = test system: P. aeruginosa ATCC 35151; assay: microbe, parasite or virus in culture; format: cell-based; details: Pseudomonas aeruginosa, ATCC35151, read-out: Minimum inhibitory concentration, P. aeruginosa ATCC 35151
[4] = test system: B. humptydooensis ATCC BAA-2767; assay: microbe, parasite or virus in culture; format: cell-based; details: Burkholderia humptydooensis, ATCCBAA2767, read-out: Minimum inhibitory concentration (MIC), B. humptydooensis ATCC BAA-2767
[5] = test system: P. aeruginosa CDC-0090; assay: microbe, parasite or virus in culture; format: cell-based; details: Pseudomonas aeruginosa, CDC0090, read-out: Minimum inhibitory concentration, P. aeruginosa CDC-0090
[6] = target: T1, PBP3 from Pseudomonas aeruginosa (PAO1) (Pseudomonas aeruginosa, UniProt G3XD46); assay: Bocillin-FL fluorescence polarization competition binding, P. aeruginosa PBP3; details: Binding affinity to P. aeruginosa PBP3; fluorescence polarization competition binding assay using Bocillin-FL; read-out: P. aeruginosa PBP3 Potency
T1 construct: made in house
T1 sequence (G3XD46 whole entry): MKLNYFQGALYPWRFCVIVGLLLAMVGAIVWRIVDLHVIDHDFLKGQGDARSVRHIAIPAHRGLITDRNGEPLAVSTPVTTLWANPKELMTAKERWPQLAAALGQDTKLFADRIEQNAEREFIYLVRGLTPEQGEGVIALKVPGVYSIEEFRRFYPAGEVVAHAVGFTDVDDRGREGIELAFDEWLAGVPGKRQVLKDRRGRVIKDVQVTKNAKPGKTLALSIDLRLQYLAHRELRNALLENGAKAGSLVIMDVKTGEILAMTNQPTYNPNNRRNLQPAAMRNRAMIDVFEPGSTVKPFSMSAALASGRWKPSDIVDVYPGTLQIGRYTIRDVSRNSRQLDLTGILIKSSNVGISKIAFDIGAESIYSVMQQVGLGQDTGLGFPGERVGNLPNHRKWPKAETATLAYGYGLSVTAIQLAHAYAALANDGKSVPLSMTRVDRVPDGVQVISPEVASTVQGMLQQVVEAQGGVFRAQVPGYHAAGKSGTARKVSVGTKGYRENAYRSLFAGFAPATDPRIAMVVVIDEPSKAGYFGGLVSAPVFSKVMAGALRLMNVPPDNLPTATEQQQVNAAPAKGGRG
Outline: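 Purified PBPs pre-incubated with inhibitor (E. coli PBP3 1.5 μM, 30 min; P. aeruginosa PBP3 0.75 μM, A. baumannii PBP1a 1 μM and PBP3 0.2 μM, 15 min), then Bocillin-FL 0.1 μM (0.05 μM for PBP1a) added; FP read up to 60 min. EC50 = concentration halving bound Bocillin-FL.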

[7] = test system: A. baumannii CDC-0045; assay: microbe, parasite or virus in culture; format: cell-based; details: Acinetobacter baumannii, CDC0045, read-out: MIC, A. baumannii CDC-0045
[8] = test system: A. baumannii ATCC 19606; assay: microbe, parasite or virus in culture; format: cell-based; details: Acinetobacter baumannii, ATCC19606, read-out: MIC, A. baumannii ATCC 19606
[9] = test system: A. baumannii CDC-0033; assay: microbe, parasite or virus in culture; format: cell-based; details: Acinetobacter baumannii, CDC0033, read-out: MIC, A. baumannii CDC-0033
[10] = test system: P. aeruginosa CDC-0110; assay: microbe, parasite or virus in culture; format: cell-based; details: Pseudomonas aeruginosa, CDC0110, read-out: Minimum inhibitory concentration, P. aeruginosa CDC-0110
[11] = test system: P. aeruginosa CDC-0095; assay: microbe, parasite or virus in culture; format: cell-based; details: Pseudomonas aeruginosa, CDC0095, read-out: Minimum inhibitory concentration, P. aeruginosa CDC-0095
[12] = test system: P. aeruginosa ATCC 27853; assay: microbe, parasite or virus in culture; format: cell-based; details: Pseudomonas aeruginosa, ATCC27853, read-out: Minimum inhibitory concentration, P. aeruginosa ATCC 27853

Chain of A. baumannii PBP2 (D0C8Z9 whole entry): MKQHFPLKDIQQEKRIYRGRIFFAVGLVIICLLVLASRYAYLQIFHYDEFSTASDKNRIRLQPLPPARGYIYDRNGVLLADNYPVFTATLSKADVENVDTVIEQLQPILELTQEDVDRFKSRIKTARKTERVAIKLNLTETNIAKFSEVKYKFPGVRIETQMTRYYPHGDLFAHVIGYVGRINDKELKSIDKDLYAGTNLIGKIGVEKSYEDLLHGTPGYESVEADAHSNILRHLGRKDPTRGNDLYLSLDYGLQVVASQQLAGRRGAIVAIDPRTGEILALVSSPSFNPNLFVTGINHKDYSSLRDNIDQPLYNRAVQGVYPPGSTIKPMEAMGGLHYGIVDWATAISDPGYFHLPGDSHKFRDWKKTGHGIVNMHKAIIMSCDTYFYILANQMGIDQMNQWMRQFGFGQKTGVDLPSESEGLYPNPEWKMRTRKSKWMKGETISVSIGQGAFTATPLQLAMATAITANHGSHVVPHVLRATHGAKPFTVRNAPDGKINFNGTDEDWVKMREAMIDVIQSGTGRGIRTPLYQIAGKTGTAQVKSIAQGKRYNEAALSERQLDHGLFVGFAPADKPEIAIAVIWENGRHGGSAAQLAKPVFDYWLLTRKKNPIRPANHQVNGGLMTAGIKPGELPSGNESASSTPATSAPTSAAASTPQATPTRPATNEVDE

Row | SMILES | EC50 [1] [µM] | MIC [2] [µg/mL] | MIC [3] [µg/mL] | MIC [4] [µg/mL] | MIC [5] [µg/mL] | IC50 [6] [µM] | MIC [7] [µg/mL] | MIC [8] [µg/mL] | MIC [9] [µg/mL] | MIC [10] [µg/mL] | MIC [11] [µg/mL] | MIC [12] [µg/mL]
1 | O=C(NCCCN1CCN(C(=O)N[C@@H](C(=O)N[C@H]2Cc3ccc(F)c(C(=O)O)c3OB2O)c2cc(F)c(O)c(O)c2Cl)C(=O)C1=O)c1cc(F)c(O)c(F)c1 [Example 422, (R)-3-((R)-2-(2-chloro-5-fluoro-3,4-dihydroxyphenyl)-2-(4-(3-(3,5-difluoro-4-hydroxybenzamido)propyl)-2,3-dioxopiperazine-1-carboxamido)acetamido)-7-fluoro-2-hydroxy-3,4-dihydro-2H-benzo[e][1,2]oxaborinine-8-carboxylic acid] | < 10 | > 128 | < 1 | < 1 | 2 to 4 (≈ 2.51 to 5.03 µM) | < 10 | < 1 | < 1 | 2 to 4 (≈ 2.51 to 5.03 µM) | < 1 | < 1 | 2 to 4 (≈ 2.51 to 5.03 µM)
2 | O=C(NCCCN1CCN(C(=O)N[C@@H](C(=O)N[C@H]2Cc3ccc(F)c(C(=O)O)c3OB2O)c2cc(F)c(O)c(O)c2Cl)C1=O)Nc1ccc(O)cc1 [Example 284, (R)-3-((R)-2-(2-chloro-5-fluoro-3,4-dihydroxyphenyl)-2-(3-(3-(3-(4-hydroxyphenyl)ureido)propyl)-2-oxoimidazolidine-1-carboxamido)acetamido)-7-fluoro-2-hydroxy-3,4-dihydro-2H-benzo[e][1,2]oxaborinine-8-carboxylic acid] | < 10 | 2 to 4 (≈ 2.68 to 5.36 µM) | < 1 | < 1 | < 1 | < 10 | < 1 | < 1 | < 1 | < 1 | < 1 | 2 to 4 (≈ 2.68 to 5.36 µM)
3 | O=C(O)c1c(F)ccc2c1OB(O)[C@@H](NC(=O)C(NC(=O)N1CCN(C3CCN(C(=O)c4cncc(O)c4)CC3)C(=O)C1=O)c1cc(F)c(O)c(O)c1Cl)C2 (stereo partly drawn) [Example 425, (3R)-3-(2-(2-chloro-5-fluoro-3,4-dihydroxyphenyl)-2-(4-(1-(5-hydroxynicotinoyl)piperidin-4-yl)-2,3-dioxopiperazine-1-carboxamido)acetamido)-7-fluoro-2-hydroxy-3,4-dihydro-2H-benzo[e][1,2]oxaborinine-8-carboxylic acid] | 10 to 50 | 8 to 16 (≈ 10.2 to 20.3 µM) | < 1 | < 1 | < 1 | < 10 | < 1 | < 1 | < 1 | < 1 | 2 to 4 (≈ 2.54 to 5.08 µM) | < 1
4 | O=C(NCCCN1CCN(C(=O)NC(C(=O)N[C@H]2Cc3ccc(F)c(C(=O)O)c3OB2O)c2cc(F)c(O)c(O)c2Cl)C(=O)C1=O)c1ccc(O)c(Cl)c1F (stereo partly drawn) [Example 419, (3R)-3-(2-(4-(3-(3-chloro-2-fluoro-4-hydroxybenzamido)propyl)-2,3-dioxopiperazine-1-carboxamido)-2-(2-chloro-5-fluoro-3,4-dihydroxyphenyl)acetamido)-7-fluoro-2-hydroxy-3,4-dihydro-2H-benzo[e][1,2]oxaborinine-8-carboxylic acid] | < 10 | > 128 | < 1 | 2 to 4 (≈ 2.46 to 4.92 µM) | 2 to 4 (≈ 2.46 to 4.92 µM) | < 10 | 2 to 4 (≈ 2.46 to 4.92 µM) | < 1 | 8 to 16 (≈ 9.85 to 19.7 µM) | < 1 | 2 to 4 (≈ 2.46 to 4.92 µM) | 2 to 4 (≈ 2.46 to 4.92 µM)
5 | O=C(NCCS(=O)(=O)N1CCN(C(=O)NC(C(=O)N[C@H]2Cc3ccc(F)c(C(=O)O)c3OB2O)c2cc(F)c(O)c(O)c2Cl)C1=O)Nc1ccc(O)cc1 (stereo partly drawn) [Example 289, (3R)-3-(2-(2-chloro-5-fluoro-3,4-dihydroxyphenyl)-2-(3-((2-(3-(4-hydroxyphenyl)ureido)ethyl)sulfonyl)-2-oxoimidazolidine-1-carboxamido)acetamido)-7-fluoro-2-hydroxy-3,4-dihydro-2H-benzo[e][1,2]oxaborinine-8-carboxylic acid] | 10 to 50 | < 1 | < 1 | 2 to 4 (≈ 2.51 to 5.02 µM) | 2 to 4 (≈ 2.51 to 5.02 µM) | < 10 | 2 to 4 (≈ 2.51 to 5.02 µM) | < 1 | 2 to 4 (≈ 2.51 to 5.02 µM) | 2 to 4 (≈ 2.51 to 5.02 µM) | 2 to 4 (≈ 2.51 to 5.02 µM) | 2 to 4 (≈ 2.51 to 5.02 µM)
6 | O=C(NCCCN1CCN(C(=O)NC(C(=O)N[C@H]2Cc3ccc(F)c(C(=O)O)c3OB2O)c2cc(F)c(O)c(O)c2Cl)C(=O)C1=O)c1cc(O)cc(F)c1 (stereo partly drawn) [Example 410, (3R)-3-(2-(2-chloro-5-fluoro-3,4-dihydroxyphenyl)-2-(4-(3-(3-fluoro-5-hydroxybenzamido)propyl)-2,3-dioxopiperazine-1-carboxamido)acetamido)-7-fluoro-2-hydroxy-3,4-dihydro-2H-benzo[e][1,2]oxaborinine-8-carboxylic acid] | < 10 | < 1 | < 1 | > 128 | < 1 | < 10 | < 1 | < 1 | 2 to 4 (≈ 2.57 to 5.14 µM) | < 1 | 2 to 4 (≈ 2.57 to 5.14 µM) | < 1
7 | O=C(NCCCN1CCN(C(=O)NC(C(=O)N[C@H]2Cc3ccc(F)c(C(=O)O)c3OB2O)c2cc(F)c(O)c(O)c2Cl)C(=O)C1=O)c1ccc(F)c(O)c1F (stereo partly drawn) [Example 411, (3R)-3-(2-(2-chloro-5-fluoro-3,4-dihydroxyphenyl)-2-(4-(3-(2,4-difluoro-3-hydroxybenzamido)propyl)-2,3-dioxopiperazine-1-carboxamido)acetamido)-7-fluoro-2-hydroxy-3,4-dihydro-2H-benzo[e][1,2]oxaborinine-8-carboxylic acid] | < 10 | 8 to 16 (≈ 10.1 to 20.1 µM) | < 1 | 2 to 4 (≈ 2.51 to 5.03 µM) | < 1 | < 10 | 2 to 4 (≈ 2.51 to 5.03 µM) | < 1 | 8 to 16 (≈ 10.1 to 20.1 µM) | < 1 | < 1 | < 1
8 | O=C(O)c1c(F)ccc2c1OB(O)[C@@H](NC(=O)C(NC(=O)N1CCN(C3CCN(C(=O)c4c(F)ccc(O)c4F)CC3)C(=O)C1=O)c1cc(F)c(O)c(O)c1Cl)C2 (stereo partly drawn) [Example 308, (3R)-3-(2-(2-chloro-5-fluoro-3,4-dihydroxyphenyl)-2-(4-(1-(2,6-difluoro-3-hydroxybenzoyl)piperidin-4-yl)-2,3-dioxopiperazine-1-carboxamido)acetamido)-7-fluoro-2-hydroxy-3,4-dihydro-2H-benzo[e][1,2]oxaborinine-8-carboxylic acid] | < 10 | < 1 | < 1 | 2 to 4 (≈ 2.43 to 4.87 µM) | 2 to 4 (≈ 2.43 to 4.87 µM) | < 10 | < 1 | < 1 | 2 to 4 (≈ 2.43 to 4.87 µM) | < 1 | 2 to 4 (≈ 2.43 to 4.87 µM) | < 1
9 | O=C(NCCS(=O)(=O)N1CCN(C(=O)N[C@@H](C(=O)N[C@H]2Cc3ccc(F)c(C(=O)O)c3OB2O)c2cc(F)c(O)c(O)c2Cl)C1=O)Nc1ccncc1 [Example 290, (R)-3-((R)-2-(2-chloro-5-fluoro-3,4-dihydroxyphenyl)-2-(2-oxo-3-((2-(3-(pyridin-4-yl)ureido)ethyl)sulfonyl)imidazolidine-1-carboxamido)acetamido)-7-fluoro-2-hydroxy-3,4-dihydro-2H-benzo[e][1,2]oxaborinine-8-carboxylic acid] | < 10 | < 1 | < 1 | < 1 | 2 to 4 (≈ 2.56 to 5.12 µM) | < 10 | < 1 | < 1 | 2 to 4 (≈ 2.56 to 5.12 µM) | < 1 | 2 to 4 (≈ 2.56 to 5.12 µM) | 2 to 4 (≈ 2.56 to 5.12 µM)
10 | CN(CCCN1CCN(C(=O)NC(C(=O)N[C@H]2Cc3ccc(F)c(C(=O)O)c3OB2O)c2cc(F)c(O)c(O)c2Cl)C(=O)C1=O)C(=O)c1cccc(O)c1 (stereo partly drawn) [Example 310, (3R)-3-(2-(2-chloro-5-fluoro-3,4-dihydroxyphenyl)-2-(4-(3-(3-hydroxy-N-methylbenzamido)propyl)-2,3-dioxopiperazine-1-carboxamido)acetamido)-7-fluoro-2-hydroxy-3,4-dihydro-2H-benzo[e][1,2]oxaborinine-8-carboxylic acid] | 10 to 50 | < 1 | < 1 | < 1 | 2 to 4 (≈ 2.58 to 5.17 µM) | < 10 | < 1 | < 1 | 2 to 4 (≈ 2.58 to 5.17 µM) | < 1 | 2 to 4 (≈ 2.58 to 5.17 µM) | < 1
